pIC50: −log10 of the molar value. Read-outs that look alike come from different tables or passages of the source.
Experiments:
[1] = system: MDA-MB-468 human breast cancer cells; details: MDA-MB-468 cells; previously reported in Ramalingam S, et al.; read-out: GI50s MDA-MB-468; cited from earlier work
[2] = system: LNCaP human prostate carcinoma cells; details: previously reported in Ramamurthy V et al., read-out: GI50s LNCaP; cited from earlier work
[3] = system: SKBR-3 human breast cancer cells; details: SKBR-3 cells; previously reported in Ramalingam S, et al.; read-out: GI50s SKBR-3; cited from earlier work
[4] = system: PC-3 human prostate carcinoma cells; details: PC-3 cells; previously reported in Ramamurthy V et al.; read-out: GI50s PC-3; cited from earlier work
[5] = system: CWR22Rv1 human prostate carcinoma cells; details: previously reported in Ramamurthy V et al., read-out: GI50s CWR22Rv1; cited from earlier work
[6] = system: MDA-MB-231 human breast cancer cells; details: MDA-MB-231 cells; previously reported in Ramalingam S, et al.; read-out: GI50s MDA-MB-231; cited from earlier work
[7] = system: PC-3 human prostate carcinoma cells; assay: MTT cell proliferation assay, PC-3; type: cell-based; details: PC-3 cells, SEM < 10%, read-out: GI50s PC-3
Description: (§1) MCF-7, MDA-MB-231, MDA-MB-468 and SKBR-3 human breast cancer cells and LNCaP, PC-3, and CWR22Rv1 human prostate carcinoma cells (American Type Culture Collection, Manassas, Va., USA) were maintained in RPMI 1640 media (Gibco-Life Technologies, Grand Island, N.Y., USA) supplemented with 10% fetal bovine serum and 1% penicillin/streptomycin. Western blotting was done as mentioned previously,^8, 13b using the following antibodies: AR, Bad, Bax, Bcl-2, eIF4E, Mnk1, Mnk-2, N-cadherin, PARP, peIF4E^ser209 purchased from Cell Signaling Technology, Danvers, Mass., USA. Anti-Mnk2 was purchased from Sigma-Aldrich and normal rabbit IgG, cyclin D1 was from Santa Cruz Biotechnology, CA, USA.
(§2) Cells were plated (2500 cells/well) in 96 well plates and treated with or without specified compounds as described previously.^8a, 12b
(§3) The clinically relevant retinoids, ATRA and 4-HPR and the Mnk inhibitor, cercosporamide were used as comparators in the assays.
(§4) The PC-3 cell line was the least sensitive to all the compounds tested.

[8] = system: LNCaP human prostate carcinoma cells; assay: MTT cell proliferation assay, LNCaP; type: cell-based; details: SEM < 10%, read-out: GI50s LNCaP
Description: as §1, §2, §3, §4

[9] = system: MCF-7 human breast cancer cells; assay: MTT cell proliferation assay, MCF-7; type: cell-based; details: Homo sapiens, MCF7; MCF-7 cells, MTT, SEM < 10%; read-out: GI50s MCF-7
Description: as §1, §2, §3

[10] = system: CWR22Rv1 human prostate carcinoma cells; assay: MTT cell proliferation assay, CWR22Rv1; type: cell-based; details: SEM < 10%, read-out: GI50s CWR22Rv1
Description: as §1, §2, §3, §4

[11] = system: MCF-7, MDA-MB-231, MDA-MB-468 and SKBR-3 human breast cancer cells; assay: MTT cell proliferation assay, four breast cancer cell lines together; type: cell-based; details: range across the four BC cell lines, read-out: GI50s, range over the BC cell lines
Description: as §1, §2, §3

[12] = system: Mnk1 and 2, peIF4E, eIF4E and cPARP; assay: Western blot of lysates from MCF-7, MDA-MB-231 and MDA-MB-468 cells; type: cell-based, human; details: MCF-7, MDA-MB-231, MDA-MB-468 cells, 24 hours
Description: as §1
As we previously reported, the anti-proliferative effects of the 1st generation MNKDAs in BC cells was due to degradation of Mnk1/2 with subsequent depletion of peIF4E and induction of apoptosis.^8a To determine if these compounds modulate Mnk1/2 and related oncogenic proteins, the inventors performed western blot of lysates from MCF-7, MDA-MB-231 and MDA-MB-468 human breast cancer cells treated with Compounds 16, 20, and 22, or with vehicle (DMSO, negative control), or Compound 6 (positive control). Equal protein concentrations from MCF-7 (FIG. 3A), MDA-MB-231 (FIG. 3B) and MDA-MB-468 (FIG. 3C) cells treated for 24 hours with Compounds 16, 20 and 22 at the various concentrations as indicated and Compound 6 (20 μmol/L) were separated by SDS-PAGE and western blots probed with antibodies to Mnk1 and 2, peIF4E, eIF4E and cPARP. Vehicle treated cells were included as control and all blots were reprobed for GAPDH for loading control.

[13] = system: MDA-MB-231 human breast cancer cells; assay: MTT cell proliferation assay, MDA-MB-231; type: cell-based; details: MDA-MB-231 cells, SEM < 10%, read-out: GI50s MDA-MB-231
Description: as §1, §2, §3

[14] = system: SKBR-3 human breast cancer cells; assay: MTT cell proliferation assay, SKBR-3; type: cell-based; details: SK-BR-3, SKBR-3 cells, SEM < 10%, read-out: GI50s SKBR-3
Description: as §1, §2, §3

[15] = system: MDA-MB-468 human breast cancer cells; assay: MTT cell proliferation assay, MDA-MB-468; type: cell-based; details: MDA-MB-468 cells, SEM < 10%, read-out: GI50s MDA-MB-468
Description: as §1, §2, §3

PC-3 cells = assay: Wound-healing assay, PC-3 cell migration; type: cell-based, human; details: 5 μM, 24 hours
Method: (§5) Wound healing assay and matrigel invasion assay were also conducted as described previously using highly metastatic PC-3 cells following treatment with 5 μM of RRs for 24 h.^8a,26
(§6) Based on previous studies with closely related compound,^8 the inhibitory effects of Compounds 16, 20 and 22 on cell migration were evaluated, using the human metastatic PC cell line, PC-3 by wound-healing assay. PC-3 cells (5×10^5 cells/well) were seeded on Boyden chamber, grown to confluence and scratches made at experimental tome zero. The cells were treated with indicated compounds (5 μM each) for 24 hours. Representative photomicrographs of initial and final wounds are shown at 100× magnification. […] At 24 hours after cell monolayers were wounded, control cells had completely filled in the scratched area.

[16] = system: fAR, Mnk1/2, peIF4E, cyclin D1 and cleaved PARP; assay: Western blot of lysates from LNCaP cells; type: cell-based, human; details: 0.6-20 μM, 24 hours
Description: as §1
Equal protein concentrations from LNCaP cells treated with Compounds 16, 20 and 22 at different concentrations (0.6-20 μM) for 24 hours were separated by SDS-PAGE and western blots probed with antibodies to fAR, Mnk1/2, peIF4E, cyclin D1 and cleaved PARP. Vehicle treated cells were included as a control and all blots were reprobed for β-actin for loading control.

[17] = system: Mnk-1, peIF4E and their downstream targets; assay: Molecular analysis of MDA-MB-231 tumors; type: in vivo; details: MDA-MB-231 tumors from treated mice
Description: To assess their in vivo mode of action, we evaluated the effects of Compounds 20 and 22 on Mnk-1, peIF4E and their downstream targets.

[18] = system: MDA-MB-231 xenograft tumors; assay: MDA-MB-231 anti-tumor efficacy study (xenograft); type: in vivo
Method: All animal studies were performed according to the guidelines and approval of the Animal Care Committee of the University of Maryland School of Medicine, Baltimore (UMB). Female Athymic Nude mice or male SCID (Charles Rivers Laboratories or UMB facilities) at 4-6 weeks of age were maintained in a pathogen-free environment. MDA-MB-231 (10×10^6) cells were subcutaneously implanted into Athymic Nude mice and CWR22Rv1 (1×10^6) cells into male SCID mice. Mice bearing established tumors (˜100 mm^3) were randomized into treatment groups of 6 and dosed with vehicle (40% β-cyclodexdrin in ddH2O), or compounds 20 and 22 (i.p., formulated in 40% β-cyclodexdrin in ddH2O, once daily, 5 days a week for 28 days).
The National Cancer Institute (NCI) criteria^23 were used to determine tumor growth efficacy of our compounds. Thus, percent test or treatment/control (% T/C), defined as the ratio of the median tumor volume for the treated group versus control group, was calculated as % T/C=[(median tumor volume of treated group at day 28)/(median tumor volume of control group at day 28)]×100.
Indeed, the two compounds were equipotent (FIG. 9A). […] Representative photos of the tumor-bearing mice in the control and the two treatment groups at termination of experiment (day 28) are presented in FIG. 9B.

MDA-MB-231 cells = assay: Wound-healing assay, MDA-MB-231 cell migration; type: cell-based, human; details: 5 μM, 24 h
Method: as §5
as §6, with “BC” for “PC”, “MDA-MB-231” for “PC-3”, “h.” for “hours.”

[19] = MDA-MB-231 xenograft mice, i.p. 20 mg/kg 5×/week over 28 days

| Compound | pIC50 [1] | pIC50 [3] | pIC50 [6] | pIC50 [7] | pIC50 [8] | pIC50 [9] | pIC50 [10] | expression of total eIF4E [12] | expressions of Mnk1, Mnk2 and peIF4E [12] | formation of c-PARP (apoptosis) [12] | pIC50 [13] | pIC50 [14] | pIC50 [15] | migration of PC-3 cells (PC-3 cells) | cleaved PARP (c-PARP) [16] | cyclin D1 [16] | expression of total eIF4E [16] | expressions of fAR, Mnk1 and Mnk2 [16] | other results |
| --- | --- | --- | --- | --- | --- | --- | --- | --- | --- | --- | --- | --- | --- | --- | --- | --- | --- | --- | --- |
| CC1=C(/C=C/C(C)=C/C=C/C(C)=C/C(=O)O)C(C)(C)CCC1 [ATRA, all-trans retinoic acid] | 4.85 | 4.64 | 4.85 |  |  |  |  |  |  |  |  |  |  |  |  |  |  |  | pIC50 [2]: 4.32; pIC50 [4]: 4.44; pIC50 [5]: 4.60 |
| CC1=C(/C=C/C(C)=C/C=C/C(C)=C\C(=O)Nc2ccccc2)C(C)(C)CCC1n1ccnc1 (centres unmarked) [Compound 16, (2Z,4E,6E,8E)-9-(3-(1H-imidazol-1-yl)-2,6,6-trimethylcyclohex-1-en-1-yl)-3,7-dimethyl-N-phenylnona-2,4,6,8-tetraenamide] |  |  |  | 5.05 | 5.57 | 5.72 | 5.89 | no noticeable effects | significantly and dose-dependently, reduced | dose-dependent formation of c-PARP | 5.76 | 5.76 | 5.60 | significantly inhibited migration | induced cleaved PARP | significant depletion | no noticeable effects | significantly and in a dose-dependent fashion, reduced | pIC50 [11]: 5.60 to 5.76 |
| CC(=O)C1=C(O)C=C2Oc3c(C(N)=O)c(O)cc(O)c3[C@]2(C)C1=O [Cerco., cercosporamide] | 4.32 | 4.58 | 4.36 |  |  |  |  |  |  |  |  |  |  |  |  |  |  |  |  |
| CC1=C(/C=C/C(C)=C/C=C/C(C)=C\C(=O)NCc2ccc(O)cc2)C(C)(C)CCC1n1ccnc1 (centres unmarked) [Compound 22, (2Z,4E,6E,8E)-9-(3-(1H-imidazol-1-yl)-2,6,6-trimethylcyclohex-1-en-1-yl)-N-(4-hydroxybenzyl)-3,7-dimethylnona-2,4,6,8-tetraenamide] |  |  |  | 5.45 | 5.77 | 6.80 | 5.73 | no noticeable effects | significantly and dose-dependently, reduced | dose-dependent formation of c-PARP | 5.65 | 5.61 | 5.57 | significantly inhibited migration | induced cleaved PARP | significant depletion | no noticeable effects | significantly and in a dose-dependent fashion, reduced | Mnk1/2, peIF4E, cyclin D1 and Bcl-2 in tumors [17]: depletion; pro-apoptotic proteins Bad and Bax in tumors [17]: up-regulation; body weight [18, 19]: did not lose body weight; signs of toxicity / adverse events [18, 19]: no apparent adverse events; suppression of tumor growth ([18]; MDA-MB-231 xenografts, i.p. 20 mg/kg 5×/week over 28 days): 85.4%; % T/C (treated/control median tumor volume) ([18]; MDA-MB-231 xenografts, i.p. 20 mg/kg 5×/week, day 28): 14.6%; migration of MDA-MB-231 cells (MDA-MB-231 cells): significantly inhibited migration |
